Results as given in patent publication US8354447B2, “mGLU receptors antagonists for treating disorders associated with mGLU receptors including addiction and depression” (The Scripps Research Institute, priority 2002, dated 2013).

System: Male DBA/2J mice
Experiment: Intravenous nicotine self-administration in drug-naive mice
Format: in vivo, mouse
Settings: 0.048 μg/inf nicotine, saline pretreatment
Protocol: Acute self-administration of nicotine was carried out using a previously described method (Semenova et al. 1995, 1999; Kuzmin et al. 1996a, 1997). The tails of the mice were fixed to the surface of the apparatus during the testing sessions to allow drug delivery; the fixing of the tail allowed the mice to move all of their four paws, head and entire body. […] The only cue associated with the delivery of the drug or vehicle infusion was the noise of the pump. Mice were tested either once or twice, with approximately one month between each test. The second test only occurred in a subset of the original set of mice (2-7 pairs of mice from each of the original groups). This was done to increase the number of subjects/condition, and involved randomly assigning and testing these mice under a different set of conditions than in the original test (i.e., different nicotine and/or MPEP dose).
Saline or one of four nicotine doses (0.016, 0.048, 0.16, 0.48 μg/inf) were made available to different groups of animals. Each group consisted of 9-17 pairs of animals, including 2-7 mice per group that had previously undergone one testing session at least one month previously (see above). Pre-treatment with MPEP (0, 5, 10, 20 mg/kg intraperitoneally) occurred 15 minutes prior to the initiation of the test session.
Data analyses were based on the comparison of both active and passive mouse nose-pokes in each pair, using the formula: R=log(AT/PT)−log(ABL/PBL), where (AT/PT) is the ratio of the total number of active versus passive mouse nose-pokes during the 30-min test, and (ABL/PBL) is the ratio of the total number of active versus passive mouse nose-pokes during the 10-min pre-test. […] Some data-points (9/237 pairs of mice) were excluded from the final analyses based on whether or not they lay within 2 standard deviations of the group mean for that specific condition. Nicotine self-administration data, obtained after saline pre-treatment, were analyzed using a one-way ANOVA with nicotine (4 levels) defined as the between-subjects factor. R-criterion data were analyzed using two-way ANOVAs with MPEP dose (4 levels) and nicotine dose (4 levels) defined as the between-subjects factors. Pre-planned R-criterion data analyses were performed using one-way ANOVAs for each available dose of self-administered nicotine and saline, with MPEP dose (4 levels) defined as the between-subject factor. Appropriate individual comparisons were performed using the Student-Newman-Keuls post hoc test. […] Body weights and pre-test nose-poke activity levels were analyzed with three-way ANOVAs (nicotine dose, MPEP dose and mouse, i.e. active/passive, defined as between-subjects factors).

CN1CCCC1c1cccnc1 (single isomer, unassigned; (-)) [nicotine, (−)-1-methyl-2-(3-pyridyl) pyrrolidine]
self-administration (R-criterion): significantly different from saline administration
